# Data reported in patent publication US9170261B2, “Peptide specific for ovarian cancer and applications” (National Tsing Hua University, priority 2013, dated 2015).
# What was measured:
# other cancer cells = experiment: Binding activity to other cancer cells (average over non-ovarian lines)
# Description: (§1) 10 ng/mL of the peptide SEQ ID NO:1 of the present invention was used to examine the binding activity to different cancer cells, including pancreatic cancer cell line (BxPC3), colon cancer cell line (HCT8), cervical cancer cell line (HeLa), and liver cancer cell line (HepG2).
# [1] = tested on: BG1 ovarian cancer cell line; experiment: Binding activity (connectivity) of peptide-conjugated magnetic beads to cancer cells; design: species or system Human; conditions: 10 ng/mL peptide
# Description: Human ovarian cancer cell line, BG1, was used. BG1 was cultured in DMEM/F12 medium containing 10% Fetal Bovine Serum (FBS). Other conditions of the culture are 37° C. and 5% CO2 in moisture atmosphere.
# as §1
# ovarian cancer cells = experiment: Capturing test with peptide-conjugated magnetic beads, microscopic observation; assay type: binding; conditions: 10^5 ovarian cancer cells
# Description: (A) magnetic beads without peptide conjugation; (B) magnetic beads conjugated to 10 μg/mL of peptide; (C) magnetic beads conjugated to 10 ng/mL of peptide; (D) magnetic beads conjugated to 10 ρg/mL of peptide.
# Different concentrations of the peptide of the present invention were conjugated to magnetic beads, wherein said concentrations are 10 μg/mL, 10 ng/mL, and 10 ρg/mL. The capturing test was performed using 10^5 ovarian cancer cells.
# [2] = tested on: liver cancer cell line (HepG2); experiment: Binding activity (connectivity) of peptide-conjugated magnetic beads to cancer cells; conditions: 10 ng/mL peptide
# Description: (§2) Other cell lines were used in the embodiments of the present invention including pancreatic cancer cell line (BxPC3), colon cancer cell line (HCT8), cervical cancer cell line (HeLa), and liver cancer cell line (HepG2).
# as §1
# [3] = tested on: pancreatic cancer cell line (BxPC3); experiment: as above; conditions: 10 ng/mL peptide
# Description: as §2, §1
# [4] = tested on: cervical cancer cell line (HeLa); experiment: as above; conditions: 10 ng/mL peptide
# Description: as §2, §1
# [5] = tested on: colon cancer cell line (HCT8); experiment: as above; conditions: 10 ng/mL peptide
# Description: as §2, §1
substance,measurement,setting,value
N′-MPHPTKNFDLYV-C′ [peptide of the present invention],average connectivity to other cancer cells,"other cancer cells; 10 ng/mL peptide, average of non-ovarian cancer cell lines",about 20%
same,binding activity to other cancers,"other cancer cells; pancreatic, colorectal, cervical or liver cancer",negligible binding activity
same,Connectivity (%),[1],about 80%
same,Connectivity (%),[1]; listed as peptide,more than 80%
same,Connectivity (%),[1]; listed as peptide of present invention,80.38 ± 2.69%
same,connection to ovarian cancer cells under microscopic observation,"ovarian cancer cells; peptide 10 μg/mL, 10 ng/mL and 10 ρg/mL conjugated to magnetic beads",able to connect to ovarian cancer cells
same,peptide concentration required to efficiently capture ovarian cancer cells,ovarian cancer cells; peptide conjugated to magnetic beads,10 ρg/mL
same,Connectivity (%),[2],15.77 ± 5.25%
same,Connectivity (%),[3],12.89 ± 0.21%
same,Connectivity (%),[4],26.02 ± 2.01%
same,Connectivity (%),[5],22.37 ± 1.89%
